Assay results reported in US20240252472A1, “COMBINATIONS FOR TREATING CANCER” (Purdue Pharma L.P., priority 2023, published 2024).

What was measured:
Format in all cases: cell-based, human
[1] = system: CD38 expressed on MM cells; assay: Daratumumab binding to myeloma cells pre-treated with EDO-S101, flow cytometry; settings: JJN3, RPMI-8226, MOLP-8; EDO-S101 1 or 2.5 μM 48 h, then daratumumab 10 μg/ml
Procedure: Evaluation of daratumumab binding to myeloma cells To evaluate daratumumab binding to myeloma cells, MM cell lines were first pre-treated with tinostamustine (1 or 2.5 μM) or DMSO for 48 hours. Then cells were washed to remove tinostamustine or DMSO from the culture medium, and daratumumab (10 μg/ml) was added and incubated for 30 minutes. After that time, cells were washed with PBS twice and incubated during 30 additional minutes with anti-human-IgG1-AlexaFluor488 (Invitrogen, Carlsbad, CA, USA). Cells were acquired in a FACSCalibur cytometer and normalized MFI was calculated as described above.
Flow cytometry was used to analyse the binding of daratumumab to MM cells pre-treated with EDO-S101. The anti-human-IgG1-Alexa Fluor 488 (Invitrogen, Carlsbad, CA, USA) antibody recognizes and binds daratumumab's Fc region and, therefore, it can be detected using flow cytometry.
MM cells (JJN3, MM1.S, RPMI-8226, MOLP-8) were treated with EDO-S101 (1 μM or 2.5 μM) in accordance with the general methods outlined above. Following treatment, the cells were washed with PBS, and incubated at 37° C. for 30 minutes with 10 μg/ml daratumumab. Cells were then washed with PBS, anti-human-IgG1-Alexa Fluor 488 was added, and the cells were incubated at 37° C. for a further 30 minutes. […]

MICA = assay: Surface expression of NK cell activating ligands by flow cytometry; settings: 48 hours, DMSO = 100
Procedure: (§1) For surface staining, cells were incubated with the appropriate antibodies and 7AAD (Immunostep) for 15 min in the dark. Data were acquired using a FACSCalibur cytometer (BD Biosciences) and analyzed using Infinicyt™ software (Cytognos). Specifically, the expression of CD38 or ligands for NK cell activating receptors (MICA, MICB, ULBP1-3, PVR and CD112) in MM cell lines was determined on the viable cell population (7AAD-). In primary myeloma cells, the expression of CD38 was analyzed over the viable myeloma population using the panel CD138-FITC/CD56-PE/7AAD/CD38-APC, whereas MICA/B-AF488/CD56-PE/7AAD/CD38-APC panel was used to determine MICA/B expression. Normalized median fluorescence intensity (MFI) was calculated by dividing median fluorescence obtained with the specific antibody by median fluorescence of the corresponding isotype control. MFI for each treatment was expressed as a percentage relative to the control (100%, cells cultured in media with DMSO).
(§2) MM cells (JJN3, MM1.S, RPMI-8226, MOLP-8) were treated with EDO-S101 (1 and 2.5 μm) for 48 hours in accordance with the methods outlined above. After incubation, expression of several ligands for NK cell activating receptors: MICA, MICB, ULBP1, ULPB2, ULPB3, CD155 (PVR) and CD112 (Nectin-2) were measured using flow cytometry. Flow cytometry was then performed in accordance with the methods outlined above to calculate.

ULBP1 = assay: as above; settings: MM cell lines tested; not basally expressed; data not shown
Procedure: as §1, §2

ULBP3 = assay: as above; settings: RPMI-8226, 48 hours, DMSO = 100
Procedure: as §1, §2

CD112 = assay: as above; settings: RPMI-8226, 48 hours, DMSO = 100
Procedure: as §1, §2

CD155 = assay: as above; settings: 48 hours, DMSO = 100
Procedure: as §1, §2

MICB = assay: as above; settings: 48 hours, DMSO = 100
Procedure: as §1, §2

ULBP2 = assay: as above; settings: 48 hours, DMSO = 100
Procedure: as §1, §2

MM cells (MOLP-8) = assay: Daratumumab-mediated ADCP, macrophage/myeloma co-culture; settings: MM cells pre-treated 2.5 μM 48 hours; macrophages 3:1, daratumumab 4 hours; vs not pre-treated
Procedure: Mononuclear cells were isolated from buffy coats from healthy donors using density gradient centrifugation with Ficoll and subsequently CD14+ monocytes were magnetically isolated in an autoMACS® Pro Separator. Monocytes were cultured for 7 days in the presence of GM-CSF (10 ng/mL) to induce differentiation to macrophages. For the evaluation of ADCP, myeloma cells were either untreated or pre-treated with 2.5 μM EDO-S101 for 48 hours. Cells were washed to remove EDO-S101 from the culture medium, and untreated and pre-treated myeloma cells were stained with PKH26. Co-cultures of macrophages and myeloma cells^PKH26+ (ratio 3:1) were incubated with different concentrations of daratumumab or the corresponding isotype control for 4 hours at 37° C. ADCP was evaluated by flow cytometry with the panel: CD11b-FITC/PKH26/CD138-APC. […]
ADCP was quantified as the percentage of double positive events using the following formula: […]
‘Treatment double positive cells’ refers to the proportion of macrophages (as a percentage) determined to have phacocytosed MM cells in co-cultures treated with daratumumab. ‘Control double positive cells’ refers to the proportion of macrophages (as a percentage) determined to have phacocytosed MM cells in co-cultures that were ED-S101 untreated or pre-treated but not treated with daratumumab.
Elimination of myeloma cells was calculated using the following formula: […]

`Cn1c(CCCCCCC(=O)NO)nc2cc(N(CCCl)CCCl)ccc21` [EDO-S101, 7-(5-(bis(2-chloroethyl)amino)-1-methyl-1H-benzo[d]imidazol-2-yl)-N-hydroxyheptanamide] was tested, and the “binding of daratumumab to MM cells (normalized MFI)” value [1] was “increases”, the “Normalized MFI MICA” value (MICA; JJN3, EDO-S101 1 μM) was 162.9 ± 11.8% and the “Normalized MFI MICA” value (MICA; JJN3, EDO-S101 2.5 μM) was 168.8 ± 10.3%. The “Normalized MFI MICA” value (MICA; MM1.S, EDO-S101 1 μM) was 131.9 ± 37.6%, the “Normalized MFI MICA” value (MICA; MM1.S, EDO-S101 2.5 μM) was 128 ± 38.2% and the “Normalized MFI MICA” value (MICA; MOLP-8, EDO-S101 1 μM) was 112.9 ± 5.7%. For the same compound, the “Normalized MFI MICA” value (MICA; MOLP-8, EDO-S101 2.5 μM) was 131.7 ± 13.4%, the “Normalized MFI MICA” value (MICA; RPMI-8226, EDO-S101 1 μM) was 121.3 ± 5.9% and the “Normalized MFI MICA” value (MICA; RPMI-8226, EDO-S101 2.5 μM) was 153.6 ± 16.1%. For the same compound, the ULBP1 expression (ULBP1) was “did not change”, the “Normalized MFI ULBP3” value (ULBP3; EDO-S101 1 μM) was 111.7 ± 14.8% and the “Normalized MFI ULBP3” value (ULBP3; EDO-S101 2.5 μM) was 129.6 ± 20.2%. The “Normalized MFI CD112” value (CD112; EDO-S101 1 μM) was 116.6 ± 13.2%, the “Normalized MFI CD112” value (CD112; EDO-S101 2.5 μM) was 142.8 ± 11.5% and the “Normalized MFI CD155” value (CD155; JJN3, EDO-S101 1 μM) was 161.4 ± 14.3%. The “Normalized MFI CD155” value (CD155; JJN3, EDO-S101 2.5 μM) was 156.8 ± 24.7%, the “Normalized MFI CD155” value (CD155; MM1.S, EDO-S101 1 μM) was 113.3 ± 3.9% and the “Normalized MFI CD155” value (CD155; MM1.S, EDO-S101 2.5 μM) was 111.5 ± 15.3%. For the same compound, the “Normalized MFI CD155” value (CD155; RPMI-8226, EDO-S101 1 μM) was 123.9 ± 6.1%, the “Normalized MFI CD155” value (CD155; RPMI-8226, EDO-S101 2.5 μM) was 168.2 ± 24.8% and the “Normalized MFI MICB” value (MICB; JJN3, EDO-S101 1 μM) was 137.6 ± 14%. The “Normalized MFI MICB” value (MICB; JJN3, EDO-S101 2.5 μM) was 144.9 ± 28%, the “Normalized MFI MICB” value (MICB; MM1.S, EDO-S101 1 μM) was 113.8 ± 7.6% and the “Normalized MFI MICB” value (MICB; MM1.S, EDO-S101 2.5 μM) was 113.4 ± 3.3%. The “Normalized MFI MICB” value (MICB; MOLP-8, EDO-S101 1 μM) was 107.8 ± 0.5%, the “Normalized MFI MICB” value (MICB; MOLP-8, EDO-S101 2.5 μM) was 119.3 ± 7.7% and the “Normalized MFI MICB” value (MICB; RPMI-8226, EDO-S101 1 μM) was 107.1 ± 6.6%. The “Normalized MFI MICB” value (MICB; RPMI-8226, EDO-S101 2.5 μM) was 131.3 ± 9.4%, the “Normalized MFI ULBP2” value (ULBP2; JJN3, EDO-S101 1 μM) was 110.5 ± 9.5% and the “Normalized MFI ULBP2” value (ULBP2; JJN3, EDO-S101 2.5 μM) was 112.9 ± 13.4%. The “Normalized MFI ULBP2” value (ULBP2; MM1.S, EDO-S101 1 μM) was 95.8 ± 4.5%, the “Normalized MFI ULBP2” value (ULBP2; MM1.S, EDO-S101 2.5 μM) was 96.3 ± 12.3% and the “Normalized MFI ULBP2” value (ULBP2; MOLP-8, EDO-S101 1 μM) was 116.1 ± 4.6%. The “Normalized MFI ULBP2” value (ULBP2; MOLP-8, EDO-S101 2.5 μM) was 124.7 ± 13.5%, the “ADCP: percentage of double positive events (macrophages that have phagocytosed myeloma cells)” value (MM cells (MOLP-8)) was “increased” and the “ADCP: percentage of eliminated MM cells” value (MM cells (MOLP-8)) was “decreased”.
